Measurements: PMC11892739, “Site-specific molecular glues for the 14-3-3/Tau pS214 protein–protein interaction via reversible covalent imine tethering” (RSC Medicinal Chemistry, 2025)
pKd: −log10 of the molar value. Square brackets hold non-standard residues; d marks the D form. Peptide text beside a SMILES is read from it. pS = N[C@@H](COP(=O)(O)O)C(=O)O

Biological target: T1, 14-3-3ζ/Tau pS2 peptide interaction (Homo sapiens, UniProt P63104)
T1 construct: made in house; host or cells: NiCo21 (DE3) E. coli
T1 sequence (P63104 1-245): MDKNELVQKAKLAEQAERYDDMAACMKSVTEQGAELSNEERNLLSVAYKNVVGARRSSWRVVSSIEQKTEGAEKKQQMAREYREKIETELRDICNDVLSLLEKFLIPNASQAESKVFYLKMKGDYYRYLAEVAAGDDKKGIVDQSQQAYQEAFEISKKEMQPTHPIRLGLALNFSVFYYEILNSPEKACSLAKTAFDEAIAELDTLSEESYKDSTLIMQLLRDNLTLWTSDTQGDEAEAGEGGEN
Assay: Fluorescence anisotropy compound titration to preformed 14-3-3ζ/Tau pS2 peptide complex
Type: binding
Conditions: FA
Description: With the compound library constructed, we sought to screen the stabilizing activity of the imidazole analogs for the 14-3-3ζ/Tau pS2 peptide interaction. In this regard, a fluorescence anisotropy (FA) assay was performed where each individual compound was titrated against a fixed concentration of 14-3-3ζ (100 nM) and fluorescein-labelled Tau pS2 peptide (10 nM; Fig. 3a and b, ESI ^† Fig. S4 and S5, Table 1, ESI ^† Table S1). Thereby, the fixed 14-3-3ζ concentration was based on the EC20 value of the binary complex formation to enable a sufficient dynamic window for ternary complex formation. […] For each compound dose–response curve, the background signal (titration without 14-3-3ζ) was subtracted, to exclude possible false positive results. […]
chromatography (HisTrap high performance cartridges, Cytiva). […] Dialyzed protein was concentrated to ∼40 mg/mL, analyzed by Q -Tof LC/MS, and aliquots were flash -frozen for storage at −80 °C. […] Fractions containing the 14 -3-3 protein were pooled and concentrated to ∼60 mg/mL, analyzed Q -Tof LC/MS, and aliquots were flash -frozen for storage at −80°C.
(§1) Fluorescence Anisotropy – compound titration
Compound titration assays were performed by titrating compounds (in 1% DMSO, starting at 500 μM) in a 2-fold dilution series to preformed complex of fluorescein -labeled Tau pS2 (10 nM) and 14 -3-3ζ (100 nM) (which represents approximately 20% bound Tau pS2 peptide to 14 -3-3ζ to allow further complex formation by addition of fragments 1) in FA buffer (10 mM HEPES pH 7.4, 150 mM NaCl, 50 µM TCEP, 0.1% (v/v) Tween20, 0.1% (w/v) BSA). […] Measurements were performed directly after plate preparation, using a Tecan SPARK plate reader at room temperature ( λex: 485±20 nm; λem: 535±25 nm; mirror: automatic; flashes: 30; settle time: 1 ms; gain: optimal; Z -position: calculated from well). […] All data were analyzed using GraphPad Prism (10.0.1) and fitted with a four -parameter logistic model (4PL) to determine binding affinities (dissociation constant, KD). […]

| SMILES | PPI stabilizing activity (in words) |
| --- | --- |
| O=Cc1ccc(-n2ccnc2-c2cccc(O)c2)cc1Br [Compound 9] | slightly inhibited 14-3-3ζ/Tau pS2 peptide complex formation |
| CC(C)c1ccc(-c2nccn2-c2ccc(C=O)c(Br)c2)cc1 [Compound 19] | completely diminished PPI stabilization |
| O=Cc1ccc(-n2ccnc2-c2ccc(OCCO)cc2)cc1Br [Compound 24] | did not show an improvement in PPI stabilization |

Biological target: T1, 14-3-3ζ/Tau pS2 peptide interaction
Assay: Fluorescence anisotropy 14-3-3ζ titration in the presence of 250 μM compound and Tau pS2 peptide
Type: binding
Conditions: 250 μM compound; apparent KD compared to internal DMSO reference
Description: On the other hand, the PPI stabilizing potency of series 1 compounds was highly dependent on the position and chemical property of the substituent. […] The compound screen for these compounds was further complemented by 14-3-3ζ titration assays in the presence of a constant concentration of compound (250 μM) and Tau pS2 peptide (10 nM) (Fig. 3c, ESI ^† Fig. S6).
This statement is strengthened by the diminished stabilizing activity when shifting the more polar chloro substituent from the para (14) to the ortho (5) to the meta position (8), respectively. […]
chromatography (HisTrap high performance cartridges, Cytiva). Typically two 5 mL columns were used for a 2 L culture in which the lysate was loaded on the column, washed with 10 CV wash buffer (50 mM Hepes, pH 8.0, 300 mM NaCl, 25 mM imidazole, 2 mM βME), and eluted with several fractions (2-4 CV) of elution buffer (50 mM Hepes, pH 8.0, 300 mM NaCl, 250 mM imidazole, 2 mM βME). Fractions containing the 14-3-3 protein were combined and dialyzed into 25 mM HEPES pH 8.0, 200 mM NaCl, 10 mM MgCl2, 2 mM βME, followed by dialysis into 25 mM HEPES, 100 mM NaCl, 10 mM MgCl2, 500 μM TCEP (adjusted to pH 8.0). Dialyzed protein was concentrated to ∼40 mg/mL, analyzed by Q -Tof LC/MS, and aliquots were flash -frozen for storage at −80 °C. For 14 -3-3σ∆c, 1 mg TEV per 100 mg purified protein was added to the dialysis to remove the purification tag. The cleaved sample was then again loaded on a 10 mL Ni-NTA column to separate the cleaved product from the expression tag and residual uncleaved protein. The flowthrough was loade d on a Superdex 75 pg 16/60 size exclusion column (GE Life Sciences) using 25 mM HEPES, 100 mM NaCl, 10 mM MgCl2, 500 μM TCEP (adjusted to pH = 8.0) as running buffer. Fractions containing the 14 -3-3 protein were pooled and concentrated to ∼60 mg/mL, analyzed Q -Tof LC/MS, and aliquots were flash -frozen for storage at −80°C.
as §1
Compound titration assays were performed by titrating compounds (in 1% DMSO, starting at 500 μM) in a 2-fold dilution series to preformed complex of fluorescein -labeled Tau pS2 (10 nM) and 14 -3-3ζ (100 nM) (which represents approximately 20% bound Tau pS2 peptide to 14 -3-3ζ to allow further complex formation by addition of fragments 1) in FA buffer (10 mM HEPES pH 7.4, 150 mM NaCl, 50 µM TCEP, 0.1% (v/v) Tween20, 0.1% (w/v) BSA). Dilution series were made in polystyrene low -volume 384 -well plates (Corning #4514, Black Round Bottom). Measurements were performed directly after plate preparation, using a Tecan SPARK plate reader at room temperature ( λex: 485±20 nm; λem: 535±25 nm; mirror: automatic; flashes: 30; settle time: 1 ms; gain: optimal; Z -position: calculated from well). Wells containing only fluorescein labelled peptide were used to set as G -factor calibrated from these wells. All data were analyzed using GraphPad Prism (10.0.1) and fitted with a four -parameter logistic model (4PL) to determine binding affinities (dissociation constant, KD). All data shown is background corrected for the signal without 14 -3-3ζ and the mean and standard deviation of technical duplicate is plotted, assay performed in a scientific duplicate for hit compounds.
Fluorescence Anisotropy – 14-3-3 titrations in the presence of compound To characterize the affinity of the Tau peptides for 14-3-3 in the presence of compound, 14-3-3ζ or γ was titrated in a 2-fold dilution series starting at 400 (for the 14-3-3ζ titrations to Tau pS2) or 800 (for the 14-3-3γ titrations to Tau pS214 or pS324) µM. 14-3-3 was added to 10 nM of fluorescein-labeled peptide (Tau pS2, Tau pS214 or Tau pS324) in the presence of 250 µM compound (1% DMSO). The assays were performed in a similar way as described above. Data shown is the average and standard deviation of a technical duplicate, top plateau corrected where needed, assay performed in a scientific duplicate.
Fluorescence Anisotropy – peptide screen […]

| SMILES | SF250μM (stabilization factor) |
| --- | --- |
| O=Cc1ccc(-n2c(-c3cccnc3)nc3ccccc32)cc1Br [Compound 2] | 20 |
| Cc1ccccc1-c1nccn1-c1ccc(C=O)c(Br)c1 [Compound 3] | 11 |
| O=Cc1ccc(-n2ccnc2-c2ccccc2Cl)cc1Br [Compound 5] | 7.5 |
| O=Cc1ccc(-n2ccnc2-c2ccc(N3CCOCC3)cc2)cc1Br [Compound 23] | 16 |
| O=Cc1ccc(-n2ccnc2-c2ccccc2)cc1Cl [Compound 25] | 15 |
| O=Cc1ccc(-n2ccnc2-c2ccccc2)cc1I [Compound 26] | 1.8 |
| O=Cc1ccc(-n2ccnc2-c2ccccc2)cc1C(F)(F)F [Compound 27] | 6.1 |
| COc1ccc(-c2nc3ccccc3n2-c2ccc(C=O)c(Br)c2)cc1 [Compound 29] | 8.3 |
| O=Cc1ccc(-n2c(-c3ccc(OCCO)cc3)nc3ccccc32)cc1Br [Compound 31] | 19 |
| O=Cc1ccc(-n2ccnc2-c2cccc3cccnc23)cc1Br [Compound 33] | 4.3 |

Same assay, conditions: screening hits

| SMILES | stabilization of the 14-3-3ζ/Tau pS2 peptide complex |
| --- | --- |
| O=Cc1ccc(-n2c(-c3cccnc3)nc3ccccc32)cc1Br [Compound 2] | 20 fold |

Biological target: 14-3-3ζ
Assay: not given
Design: method as in doi:10.1101/2024.03.15.585148
Conditions: FA assay; read-out: KD of monovalent Tau peptide to 14-3-3ζ; cited from earlier work

| SMILES | pKd |
| --- | --- |
| CC(=O)N[C@@H](CO)C(=O)N[C@@H](CCCNC(=N)N)C(=O)N[C@H](C(=O)N1CCC[C@H]1C(=O)N[C@@H](COP(=O)(O)O)C(=O)N[C@@H](CC(C)C)C(=O)N1CCC[C@H]1C(=O)N[C@H](C(=O)N1CCC[C@H]1C(=O)N1CCC[C@H]1C(=O)N[C@H](C(=O)N[C@@H](CCCNC(=N)N)C(=O)N[C@@H](CCC(=O)O)C(=O)O)[C@@H](C)O)[C@@H](C)O)[C@@H](C)O [Tau pS214] (Ac-SRTP[pS]LPTPPTRE-OH; C-terminus assumed) | < 4.00 |
| CC[C@H](C)[C@H](NC(=O)[C@H](CC(N)=O)NC(=O)CNC(=O)[C@H](CC(C)C)NC(=O)[C@H](COP(=O)(O)O)NC(=O)CNC(=O)[C@H](CS)NC(=O)[C@H](CCCCN)NC(=O)[C@H](CO)NC(=O)[C@@H](NC(=O)[C@@H](NC(C)=O)C(C)C)[C@@H](C)O)C(=O)N[C@@H](Cc1c[nH]cn1)C(=O)N[C@@H](Cc1c[nH]cn1)C(=O)N[C@@H](CCCCN)C(=O)O [Tau pS324] (Ac-VTSKCG[pS]LGNIHHK-OH; C-terminus assumed) | < 4.00 |
